pIC50: −log10 of the molar value. Values after ≈ are worked out from the molar mass of the structure shown.
Key:
KB = assay: Compound was tested for cytotoxicity against human KB cells; assay type: functional, cell-based
Tubulin alpha chain = Tubulin alpha chain (Sus scrofa, UniProt P02550); assay: Inhibition of the polymerization of tubulin; assay type: functional
Sequence of Tubulin alpha chain (P02550 whole entry, looked up): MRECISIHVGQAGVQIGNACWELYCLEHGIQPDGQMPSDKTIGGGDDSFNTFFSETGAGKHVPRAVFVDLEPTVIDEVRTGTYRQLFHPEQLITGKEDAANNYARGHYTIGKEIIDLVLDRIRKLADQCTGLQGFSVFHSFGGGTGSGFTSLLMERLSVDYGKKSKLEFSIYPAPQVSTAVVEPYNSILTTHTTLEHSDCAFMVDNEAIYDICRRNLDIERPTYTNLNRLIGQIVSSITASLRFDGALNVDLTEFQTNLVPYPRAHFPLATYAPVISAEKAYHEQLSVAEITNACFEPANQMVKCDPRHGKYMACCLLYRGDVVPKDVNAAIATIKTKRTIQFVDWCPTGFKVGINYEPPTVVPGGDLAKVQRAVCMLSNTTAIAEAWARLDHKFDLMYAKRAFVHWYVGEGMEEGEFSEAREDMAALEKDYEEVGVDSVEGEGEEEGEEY

pIC50 (Tubulin alpha chain)	SMILES	IC50 (KB) [µg/mL]
5.00	CC(=O)OC[C@@]1(C)c2c(c3c(C)c(O)ccc3oc2=O)O[C@H]1C	23 (≈ 72.3 µM)
–	Cc1c(O)ccc2oc(=O)c3c(c12)OC(C)C3(C)C (centres undefined)	1.5 (≈ 5.76 µM)
–	COc1cc(=O)oc2ccc(O)c(C)c12	4.8 (≈ 23.3 µM)
–	Cc1c(O)ccc2oc(=O)c3c(c12)O[C@H](C)[C@@]3(C)CO	4.3 (≈ 15.6 µM)
–	Cc1c(O)ccc2oc(=O)c3c(c12)O[C@@H](C)[C@@]3(C)CO	5.7 (≈ 20.6 µM)
4.52	CC(=O)OC[C@@]1(C)c2c(c3c(C)c(O)ccc3oc2=O)O[C@@H]1C	17 (≈ 53.4 µM)
–	Cc1c(OC2O[C@H](CO)[C@@H](O)[C@H](O)[C@H]2O)ccc2oc(=O)c3c(c12)OC(C)C3(C)C (single isomer, unassigned)	6.7 (≈ 15.9 µM)

From ChEMBL document CHEMBL1146792, “Antimitotic activity of glaupalol-related coumarins from Glaucidium palmatum” (Bioorg Med Chem Lett, 2004)
